Measured values published in US10464922B2, “Metalloenzyme inhibitor compounds” (NQP 1598 LTD., priority 2015, dated 2019).
pIC50: −log10 of the molar value. In brackets after ≈: the same amount, converted by molar mass.

Legend:
[1] = tested on: Hedgehog signaling pathway Gli Reporter-NIH3T3 cells; assay: Gli luciferase reporter assay, Hedgehog signalling pathway activity; assay type: cell-based; conditions: mShh 1 μg/ml, 27 hours
Method: Hedgehog signaling pathway Gli Reporter-NIH3T3 cells were cultured in DMEM medium with 10% Calf serum, 1% Penn-strep, 500 μg/ml of Geneticin.
To perform the Gli luciferase reporter assay, Gli Reporter—NIH3T3 cells were seeded at 25,000 cells per well into white clear-bottom 96-well microplate in 100 μl of growth medium. Cells were incubated at 37° C., and 5% CO2 for overnight. The next day, remove the medium from wells and add 45 μl of diluted inhibitor in assay medium (Opti-MEM Reduced Serum Medium+0.5% calf serum+1% non-essential amino acids+1 mM Na-pyruvate+10 mM HEPES+1% Pen/Strep) per well. Incubate cells at 37° C. in a CO2 incubator for 2 hours. Then add 5 μl of diluted mShh in assay medium to wells (final [mShh]=1 μg/ml). Add 50 μl of assay medium to cell-free control wells. Cells were treated for 27 hours. After treatment, cells were lysed and luciferase assay was performed using ONE-Step luciferase assay system: add 50 μl of One-Step Luciferase reagent per well and rock at room temperature for ˜30 minutes. Luminescence was measured using a luminometer (BioTek Synergy™ 2 microplate reader). Compounds of the present invention are active in blockade of hedgehog signalling.

C. albicans (ATCC 90028) = assay: Minimum inhibitory concentration, in vitro broth microdilution assay (CLSI M27-A2); assay type: cell-based, Candida albicans; conditions: ATCC 90028, about 50% growth reduction, 2 days at 36° C., range tested 8-0.0078 μg/mL, values given as ranges; for MIC: Candida albicans, ATCC90028, 48 h, read-out: Candida albicans MIC
Outline: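 Inoculum of 1×10^3 to 1×10^4 CFU/mL in RPMI-1640+MOPS, exposed to 11 two-fold serial compound concentrations at 2 percent final DMSO, per CLSI M27-A2. After 2 days at 36° C, wells scored visually for growth to give MIC; tested in duplicate.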

A. fumigatus = A. fumigatus MIC at 100% growth inhibition (CLSI M38-A2); assay type: cell-based, Aspergillus fumigatus; conditions: 100% growth inhibition, range tested 8-0.0078 μg/mL, values given as ranges; for MIC: Aspergillus fumigatus, read-out: Aspergillus fumigatus MIC
Method: A. fumigatus MICs were determined at 100% growth inhibition following CLSI guidelines at a concentration range of 8-0.0078 μg/mL (CLSI M38-A2).

MIC (C. albicans (ATCC 90028)) [µg/mL] | MIC (A. fumigatus) [µg/mL] | Candida albicans MIC (C. albicans (ATCC 90028)) [µg/mL] | Aspergillus fumigatus MIC (A. fumigatus) [µg/mL] | SMILES | pIC50 [1]
> 8 | > 8 |  |  | CC[C@@H]([C@H](C)O)n1ncn(-c2ccc(N3CCN(c4ccc(-c5ccc(C(F)(F)C(O)(Cn6nccn6)c6cccc(Cl)c6)nc5)cc4)CC3)cc2)c1=O (stereo partly shown) [Example 125] | 7.04
0.0078 to 0.01 (≈ 0.0127 to 0.0162 µM) | 0.25 to 1 (≈ 0.406 to 1.62 µM) |  |  | N#Cc1ccc(N2CCN(c3ccc(-c4ccc(C(F)(F)[C@](O)(Cn5cnnn5)c5ccc(F)cc5F)nc4)cc3)CC2)nc1 [Example 12] | 6.40
 |  | 0.10 to 1.0 | >8 | CC[C@@H]([C@H](C)O)n1ncn(-c2ccc(N3CCN(c4ccc(-c5ccc(C(F)(F)C(O)(Cn6cnnn6)c6ccccc6F)nc5)cc4)CC3)cc2)c1=O (stereo partly drawn) [38(−)] | 7.23
0.0078 to 0.01 (≈ 0.0103 to 0.0132 µM) | 1 to 4 (≈ 1.32 to 5.27 µM) |  |  | CC[C@@H]([C@H](C)O)n1ncn(-c2ccc(N3CCN(c4ccc(-c5ccc(C(F)(F)[C@](O)(Cn6cnnn6)c6ccc(F)cc6F)nc5)cc4)CC3)cc2)c1=O [Example 20, 4-(4-(4-(4-(6-((R)-2-(2,4-difluorophenyl)-1,1-difluoro-2-hydroxy-3-(1H-tetrazol-1-yl)propyl)pyridin-3-yl)phenyl)piperazin-1-yl)phenyl)-2-((2S,3S)-2-hydroxypentan-3-yl)-2,4-dihydro-3H-1,2,4-triazol-3-one] | 6.72
0.0078 to 0.01 (≈ 0.0121 to 0.0156 µM) | > 8 |  |  | N#Cc1ccc(CN2CCN(c3ccc(-c4ccc(C(F)(F)[C@](O)(Cn5cnnn5)c5ccc(F)cc5F)nc4)cc3)CC2=O)cc1 [Example 28, (R)-4-((4-(4-(6-(2-(2,4-difluorophenyl)-1,1-difluoro-2-hydroxy-3-(1H-tetrazol-1-yl)propyl)pyridin-3-yl)phenyl)-2-oxopiperazin-1-yl)methyl)benzonitrile] | 6.24
> 8 | > 8 |  |  | CC[C@@H]([C@H](C)O)n1ncn(-c2ccc(N3CCN(c4ccc(-c5ccc(C(F)(F)C(O)(Cn6cccn6)c6ccccc6F)nc5)cc4)CC3)cc2)c1=O (stereo partly shown) [Example 117] | 7.04
> 8 | > 8 |  |  | CC[C@@H]([C@H](C)O)n1ncn(-c2ccc(N3CCN(c4ccc(-c5ccc(C(F)(F)C(O)(Cn6cnc(C(F)(F)F)n6)c6ccccc6F)nc5)cc4)CC3)cc2)c1=O (stereo partly drawn) [106(+)] | 6.51
0.01 to 0.1 (≈ 0.0135 to 0.135 µM) | 0.062 to 0.25 (≈ 0.0837 to 0.337 µM) |  |  | CC[C@@H]([C@H](C)O)n1ncn(-c2ccc(N3CCN(c4ccc(-c5ccc(C(F)(F)C(O)(Cn6cnnn6)c6ccc(F)cc6)nc5)cc4)CC3)cc2)c1=O (single isomer, unassigned; (+)) [63(+)] | 6.82
0.01 to 0.1 (≈ 0.0135 to 0.135 µM) | 0.25 to 1 (≈ 0.337 to 1.35 µM) |  |  | CC[C@@H]([C@H](C)O)n1ncn(-c2ccc(N3CCN(c4ccc(-c5ccc(C(F)(F)C(O)(Cn6cnnn6)c6cccc(F)c6)nc5)cc4)CC3)cc2)c1=O (single isomer, unassigned; (+)) [64(+)] | 6.80
 |  |  |  | CC[C@@H]([C@H](C)O)n1ncn(-c2ccc(N3CCN(c4ccc(-c5ccc(C(F)(F)C(O)(Cn6cnnn6)c6ccccc6F)nc5)cc4)CC3)cc2)c1=O (mixture of isomers) [Example 38] | 7.42
> 8 | > 8 |  |  | CC[C@@H]([C@H](C)O)n1ncn(-c2ccc(N3CCN(c4ccc(-c5ccc(C(F)(F)C(O)(Cn6nccn6)c6ccc(F)cc6F)nc5)cc4)CC3)cc2)c1=O (stereo partly drawn) [Example 107, 4-(4-(4-(4-(6-(2-(2,4-difluorophenyl)-1,1-difluoro-2-hydroxy-3-(2H-1,2,3-triazol-2-yl)propyl)pyridin-3-yl)phenyl)piperazin-1-yl)phenyl)-2-((2S,3S)-2-hydroxypentan-3-yl)-2,4-dihydro-3H-1,2,4-triazol-3-one] | 6.57
> 8 | > 8 |  |  | CC[C@@H]([C@H](C)O)n1ncn(-c2ccc(N3CCN(c4ccc(-c5ccc(C(F)(F)C(O)(Cc6nnn[nH]6)c6ccccc6F)nc5)cc4)CC3)cc2)c1=O (stereo partly drawn) [Example 115, 4-(4-(4-(4-(6-(1,1-difluoro-2-(2-fluorophenyl)-2-hydroxy-3-(1H-tetrazol-5-yl)propyl)pyridin-3-yl)phenyl)piperazin-1-yl)phenyl)-2-((2S,3S)-2-hydroxypentan-3-yl)-2,4-dihydro-3H-1,2,4-triazol-3-one] | 6.29
0.1 to 1 (≈ 0.132 to 1.32 µM) | > 8 |  |  | CC[C@@H]([C@H](C)O)n1ncn(-c2ccc(N3CCN(c4ccc(-c5ccc(C(F)(F)C(O)(Cn6cccn6)c6ccc(F)cc6F)nc5)cc4)CC3)cc2)c1=O (stereo partly drawn) [Example 101, 4-(4-(4-(4-(6-(2-(2,4-difluorophenyl)-1,1-difluoro-2-hydroxy-3-(1H-pyrazol-1-yl)propyl)pyridin-3-yl)phenyl)piperazin-1-yl)phenyl)-2-((2S,3S)-2-hydroxypentan-3-yl)-2,4-dihydro-3H-1,2,4-triazol-3-one] | 6.66
0.1 to 1 (≈ 0.133 to 1.33 µM) | > 8 |  |  | CC[C@@H]([C@H](C)O)n1ncn(-c2ccc(N3CCN(c4ccc(-c5ccc(C(F)(F)C(O)(Cn6ncnc6C)c6cccc(F)c6)nc5)cc4)CC3)cc2)c1=O (single isomer, unassigned; (+)) [85(+)] | 6.60
0.1 to 1 | > 8 |  |  | CC[C@@H]([C@H](C)O)n1ncn(-c2ccc(N3CCN(c4ccc(-c5ccc(C(F)(F)C(O)(Cn6cnnn6)c6cccc(Cl)c6)nc5)cc4)CC3)cc2)c1=O (mixture of isomers) [Example 127, 4-(4-(4-(4-(6-(2-(3-chlorophenyl)-1,1-difluoro-2-hydroxy-3-(1H-tetrazol-1-yl)propyl)pyridin-3-yl)phenyl)piperazin-1-yl)phenyl)-2-((2S,3S)-2-hydroxypentan-3-yl)-2,4-dihydro-3H-1,2,4-triazol-3-one] | 7.70
1 to 8 (≈ 1.32 to 10.6 µM) | > 8 |  |  | CC[C@@H]([C@H](C)O)n1ncn(-c2ccc(N3CCN(c4ccc(-c5ccc(C(F)(F)C(O)(Cn6cccn6)c6cccc(Cl)c6)nc5)cc4)CC3)cc2)c1=O (stereo partly drawn) [Example 126, 4-(4-(4-(4-(6-(2-(3-chlorophenyl)-1,1-difluoro-2-hydroxy-3-(1H-pyrazol-1-yl)propyl)pyridin-3-yl)phenyl)piperazin-1-yl)phenyl)-2-((2S,3S)-2-hydroxypentan-3-yl)-2,4-dihydro-3H-1,2,4-triazol-3-one] | 6.72
 |  | ≤0.0078 to 0.010 | 0.062 to 0.25 | CC[C@@H]([C@H](C)O)n1ncn(-c2ccc(N3CCN(c4ccc(-c5ccc(C(F)(F)C(O)(Cn6cnnn6)c6ccccc6F)nc5)cc4)CC3)cc2)c1=O (stereo partly drawn) [38(+)] | 6.92
0.0078 to 0.01 (≈ 0.0144 to 0.0184 µM) | > 8 |  |  | N#Cc1ccc(N2CCN(c3ccc(-c4ccc(C(F)(F)C(O)(Cn5cnnn5)C5CC5)nc4)cc3)CC2)cc1 (stereo not shown) [Example 36, 4-(4-(4-(6-(2-cyclopropyl-1,1-difluoro-2-hydroxy-3-(1H-tetrazol-1-yl)propyl)pyridin-3-yl)phenyl)piperazin-1-yl) benzonitrile] | 6.07
> 8 | > 8 |  |  | CC[C@@H]([C@H](C)O)n1ncn(-c2ccc(N3CCN(c4ccc(-c5ccc(C(F)(F)C(O)(Cn6nccn6)c6ccccc6F)nc5)cc4)CC3)cc2)c1=O (stereo partly drawn) [Example 116, 4-(4-(4-(4-(6-(1,1-difluoro-2-(2-fluorophenyl)-2-hydroxy-3-(2H-1,2,3-triazol-2-yl)propyl)pyridin-3-yl)phenyl)piperazin-1-yl)phenyl)-2-((2S,3S)-2-hydroxypentan-3-yl)-2,4-dihydro-3H-1,2,4-triazol-3-one] | 6.80
